US10519107B2, “Sulfonamide compounds and their use as STAT5 inhibitors” (Governing Council of the University of Toronto, priority 2014, dated 2019)

What was measured:
wildtype STAT3 protein = wildtype STAT3 protein (Homo sapiens, UniProt P40763); test: Fluorescence polarization competitive binding, STAT3; conditions: FP; converted from IC50 with Equation 1
Experimental: Binding of compounds of the disclosure to the STAT5b SH2 domain was assessed using fluorescence polarization assays similar to those previously reported.^15 Analogous assays were also performed with STAT3 protein to determine the specificity of the compounds (13a-d). Fluorescence assays were performed in flat black 384-well plates (Corning) and fluorescence polarization measurements were taken with the Infinite M1000 machine (Tecan, Crailsheim, Germany). The buffer conditions for all assays were 20 mM HEPES, 50 mM NaCl, 1 mM EDTA, 2 mM dithiothreitol, pH 7.5 and the final DMSO concentration in the wells was kept constant at 10%.
Calibration curves for the wildtype STAT3 and STAT5b proteins were derived by incubating a 10 nM final concentration of fluoresceinated-phosphopeptide (5-FAM-pYLPQTC (SEQ ID NO:1) and 5-FAM-GpYLVLDKW (SEQ ID NO:2) for STAT3 and STAT5B, respectively), which are known to bind the SH2 domains, with increasing concentrations of protein (as shown in FIG. 3). The point at which 80% of the fluoresceinated-phosphopeptide was bound was used as the optimal protein concentration required for the competitive fluorescent polarization assays.
For the STAT5b fluorescence polarization assays, the 5-FAM-GpYLVLDKW (SEQ ID NO:2) peptide and STAT5b protein were first incubated for 30 minutes at room temperature. Compounds were titrated at concentrations ranging from 1->60,000 nM and incubated for a further 15 minutes at which point fluorescence polarization measurements were taken in triplicate. The final well concentrations of the fluoresceinated-phosphopeptide and STAT5B were 10 nM and 250 nM, respectively. The same protocol was used for the analogous STAT3 FP assays, except that the 5-FAM-pYLPQTC (SEQ ID NO:1) peptide was used as a probe and the final STAT3 concentration was 150 nM in each well.
The resulting fluorescence polarization measurements were normalized and plotted against compound concentration on a logarithmic scale. The raw data was fitted with a standard dose-normalized response inhibition curve using GraphPad Prism 6 software. The IC50 values were converted to Ki values using Equation 1, which corrects for protein concentration and is a more accurate determination of inhibitory constants in a fluorescence polarization assay than the Cheng-Pruskoff equation.^15 All inhibitory constants and calculated Ki values are summarized in Table 1.
Modified Cheng-Pruskoff equation containing a correction factor for protein concentration.

STAT3 = STAT3 (Homo sapiens, UniProt P40763); test: SPR binding, His-tagged STAT3; conditions: 25° C., Langmuir 1:1 binding model
Experimental: (§1) Interactions of His-tagged STAT3 and STAT5 with small molecules were investigated using SPR spectroscopy. The binding experiments were carried on a ProteOn XPR36 (Bio-Rad) biosensor at 25° C. using the HTE sensor chip (Bio-Rad, Ontario, Canada). The flow cells of the sensor chip were loaded with a nickel solution at 30 μL/min for 120 s to saturate the Tris-NTA surface with Ni(II) ions. […] When the injection of the compounds was completed, running buffer was allowed to flow over the immobilized substrates for the non-specifically bound inhibitors to dissociate for 600 s. Following dissociation of the compounds, the chip surface was regenerated with an injection of 1 M NaCl at a flow rate of 100 μL/min for 18 s. Interspot channel reference was used for non-specific binding corrections and the blank channel used with each analyte injection served as a double reference to correct for possible baseline drift. Data were analysed using ProteOn Manager Software version 3.1.

STAT5 = molecular target: T1, STAT5; conditions: SPR, 25° C., Langmuir 1:1 binding model; read-out: KD (koff/kon) STAT5
T1 construct: rows headed: KD (koff/kon) STAT5
Experimental: as §1

[1] = system: MV-4;11 (FLT3-ITD) AML cells; test: CellTiter-Blue cell viability assay, MV-4;11; assay type: cell-based, Human
Experimental: (§2) Human erythroleukemia K562 and MV-4-11 cells were cultured in Iscove's modified dulbecco's medium (Gibco) supplemented with 10% FBS (Sigma). Breast carcinoma lines MDA-MB-231 and MDA-MB-468 were grown in dulbecco's modified eagles medium (DMEM) supplemented with 10% FBS (sigma). For downregulation of STAT5 activity, cells were treated with 5, 10, 15, 20 μM of 13a-d STAT5 compounds, for 3 h and 5 h time points. As a control, cells were treated with the DMSO alone.
Cell viability was assessed following treatment at various concentrations of inhibitor (0.78-50 μM) using a CellTiter-Blue cell viability assay (72 hours).

[2] = system: phosphorylated STAT5 (Y694); test: Western blotting of pSTAT5 in K562 cells; assay type: cell-based, Human; conditions: K562, 5 hrs
Experimental: as §2

Sequence of wildtype STAT3 protein (P40763 whole entry, species assumed, the tested form may be a part): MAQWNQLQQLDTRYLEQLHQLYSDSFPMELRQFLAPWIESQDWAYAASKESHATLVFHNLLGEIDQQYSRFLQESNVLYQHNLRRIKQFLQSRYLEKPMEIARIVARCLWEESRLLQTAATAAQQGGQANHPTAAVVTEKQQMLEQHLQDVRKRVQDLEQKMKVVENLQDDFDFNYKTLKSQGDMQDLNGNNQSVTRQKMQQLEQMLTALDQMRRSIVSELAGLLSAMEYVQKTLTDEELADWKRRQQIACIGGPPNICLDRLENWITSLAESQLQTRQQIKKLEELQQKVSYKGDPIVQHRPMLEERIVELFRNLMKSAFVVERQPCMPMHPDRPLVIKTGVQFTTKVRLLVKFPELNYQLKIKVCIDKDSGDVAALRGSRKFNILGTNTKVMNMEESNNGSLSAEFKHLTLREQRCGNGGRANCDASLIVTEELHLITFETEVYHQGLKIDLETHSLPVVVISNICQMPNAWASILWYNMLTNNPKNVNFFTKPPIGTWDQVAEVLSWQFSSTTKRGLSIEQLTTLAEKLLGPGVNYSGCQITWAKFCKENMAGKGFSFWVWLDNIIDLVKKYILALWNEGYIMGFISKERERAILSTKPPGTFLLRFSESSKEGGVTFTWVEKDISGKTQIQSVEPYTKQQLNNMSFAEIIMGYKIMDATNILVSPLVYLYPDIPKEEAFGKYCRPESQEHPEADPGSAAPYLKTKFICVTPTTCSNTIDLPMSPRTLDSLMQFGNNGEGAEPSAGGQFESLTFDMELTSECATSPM
Sequence of STAT3 (P40763 whole entry): as the sequence (P40763 whole entry, species assumed, the tested form may be a part) above

CC(C)(C)c1cc(CN(C(=O)CN(Cc2ccc(Cl)cc2)S(=O)(=O)c2c(F)c(F)c(F)c(F)c2F)c2ccc(C(=O)O)c(O)c2)cc(C(C)(C)C)c1 [Compound 13a, 4-(2-((N-(4-chlorobenzyl)-2,3,4,5,6-pentafluorophenyl)sulfonamido)-N-(3,5-di-tert-butylbenzyl)acetamido)-2-hydroxybenzoic Acid]
Ki (wildtype STAT3 protein): > 60000 nM | Kd (STAT3): 287 ± 29 nM | Kd (STAT5): 41.9 ± 4 nM | effect on MV-4;11 cells ([1]; 10 μM): abolished | IC50 ([1]; Homo sapiens, MV4-11, 72 hours, CellTiter-Blue): 3500 nM | levels of phosphorylated STAT5 (Y694) [2]: decreased pSTAT5 in a dose dependant manner and ablated pSTAT5 above 10 μM | total STAT5 concentration or cleavable PARP-1 [2]: no change
